Laboratory results: paper PMC5599305 (The pharmacogenomics journal, 2017)

Experiments:
Assay type in all cases: cell-based
[1] = molecular target: T1, human α4β2 nicotinic receptor, 3:2 (α4:β2) stoichiometry; (α4)3(β2)2 (Homo sapiens, UniProt P17787+P43681); test: two-electrode voltage clamp, Xenopus oocytes; settings: agonist
[2] = molecular target: T1, human α4β2 nicotinic receptor, 3:2 (α4:β2) stoichiometry; (α4)3(β2)2; test: two-electrode voltage clamp, Xenopus oocytes, direct activation; settings: 200 μM compound alone; weak agonism
[3] = molecular target: human α4β2 nicotinic receptor, 2:3 stoichiometry; (α4)2(β2)3 (Homo sapiens, UniProt P17787+P43681); test: as above; settings: 200 μM compound alone; weak agonism
human α4β2 nicotinic receptor, 2:3 stoichiometry; (α4)2(β2)3, sequence (P43681 27-627): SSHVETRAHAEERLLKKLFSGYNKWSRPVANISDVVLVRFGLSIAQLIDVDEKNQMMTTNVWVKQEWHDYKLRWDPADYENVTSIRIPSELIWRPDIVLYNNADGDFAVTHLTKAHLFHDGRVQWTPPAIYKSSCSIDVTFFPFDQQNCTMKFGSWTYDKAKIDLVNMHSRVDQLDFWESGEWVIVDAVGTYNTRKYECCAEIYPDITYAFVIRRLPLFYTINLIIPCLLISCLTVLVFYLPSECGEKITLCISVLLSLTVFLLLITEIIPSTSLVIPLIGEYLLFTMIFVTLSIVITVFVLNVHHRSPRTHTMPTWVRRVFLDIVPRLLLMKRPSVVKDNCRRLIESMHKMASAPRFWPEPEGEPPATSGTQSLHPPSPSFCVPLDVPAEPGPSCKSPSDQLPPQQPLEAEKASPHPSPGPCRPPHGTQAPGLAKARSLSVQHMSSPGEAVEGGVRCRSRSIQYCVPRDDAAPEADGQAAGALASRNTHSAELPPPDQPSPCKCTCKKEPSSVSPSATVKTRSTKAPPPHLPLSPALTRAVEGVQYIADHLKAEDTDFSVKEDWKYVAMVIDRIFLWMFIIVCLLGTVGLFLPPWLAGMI
human α4β2 nicotinic receptor, 2:3 stoichiometry; (α4)2(β2)3, sequence (P17787 26-502): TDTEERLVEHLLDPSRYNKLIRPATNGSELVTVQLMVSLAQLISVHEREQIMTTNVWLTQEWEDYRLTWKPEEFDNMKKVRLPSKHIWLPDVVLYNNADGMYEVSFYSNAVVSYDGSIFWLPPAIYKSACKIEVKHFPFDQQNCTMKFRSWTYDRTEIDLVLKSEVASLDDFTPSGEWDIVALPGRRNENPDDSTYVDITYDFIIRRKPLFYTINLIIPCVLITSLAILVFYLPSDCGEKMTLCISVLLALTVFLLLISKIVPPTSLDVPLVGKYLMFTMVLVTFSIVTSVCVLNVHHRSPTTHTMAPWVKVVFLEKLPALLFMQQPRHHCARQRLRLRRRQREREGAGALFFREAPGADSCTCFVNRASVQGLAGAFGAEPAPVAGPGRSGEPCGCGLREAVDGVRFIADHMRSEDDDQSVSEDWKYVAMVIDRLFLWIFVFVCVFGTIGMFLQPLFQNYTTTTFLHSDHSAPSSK

T1 sequence (P43681 27-627): as the sequence (P43681 27-627) above
T1 sequence (P17787 26-502): as the sequence (P17787 26-502) above

SMILES: CC(=O)OCC[N+](C)(C)C [acetylcholine]
- EC3 [1]: ~ 1 μM

SMILES: C[N@@+]1([O-])CCC[C@H]1c1cccnc1 [trans-nicotine-N-oxide]
- relative peak response, % of 1 mM ACh response, at 200 μM [2]: 1.7 ± 0.3%
- relative peak response, % of saturating ACh response, at 200 μM [3]: 5.7 ± 1.1%
